Reference: PMC7876453, “Targeting Indoleamine 2,3-Dioxygenase in Cancer Models Using the Novel Small Molecule Inhibitor NTRC 3883-0” (Frontiers in Immunology, 2021)
pIC50: −log10 of the molar value. Read-outs that look alike come from different tables or passages of the source.

Assays:
mIDO1 = target: T1, mIDO1 (Mus musculus, UniProt P28776); assay: mouse IDO1 biochemical assay (NFK GreenScreen)
T1 construct: Full-length recombinant human and mouse IDO1 were expressed in Escherichia coli with a hexahistidine tag at the N-terminus; hexahistidine (N); made in house; host or cells: Escherichia coli
T1 sequence (P28776 whole entry): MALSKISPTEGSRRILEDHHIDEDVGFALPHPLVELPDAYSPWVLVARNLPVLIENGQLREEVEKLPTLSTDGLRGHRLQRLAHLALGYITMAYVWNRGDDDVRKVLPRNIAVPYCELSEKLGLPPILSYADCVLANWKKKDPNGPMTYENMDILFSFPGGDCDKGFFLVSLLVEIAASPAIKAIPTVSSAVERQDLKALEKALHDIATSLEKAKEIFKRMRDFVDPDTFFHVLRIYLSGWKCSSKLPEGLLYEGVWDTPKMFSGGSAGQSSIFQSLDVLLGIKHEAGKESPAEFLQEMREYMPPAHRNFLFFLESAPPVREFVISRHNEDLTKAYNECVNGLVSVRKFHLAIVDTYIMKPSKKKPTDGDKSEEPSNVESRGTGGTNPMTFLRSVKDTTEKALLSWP

hWB + IFNγ (hIDO1) = target: T2, hWB + IFNγ (hIDO1) (Homo sapiens, UniProt P14902); assay: human whole blood assay, Trp-catabolizing activity after IFNγ stimulation; assay type: cell-based; conditions: human whole blood from healthy donors
T2 construct: from tissue; host or cells: heparinized human whole blood from healthy donors, IFNγ-stimulated
T2 sequence (P14902 whole entry): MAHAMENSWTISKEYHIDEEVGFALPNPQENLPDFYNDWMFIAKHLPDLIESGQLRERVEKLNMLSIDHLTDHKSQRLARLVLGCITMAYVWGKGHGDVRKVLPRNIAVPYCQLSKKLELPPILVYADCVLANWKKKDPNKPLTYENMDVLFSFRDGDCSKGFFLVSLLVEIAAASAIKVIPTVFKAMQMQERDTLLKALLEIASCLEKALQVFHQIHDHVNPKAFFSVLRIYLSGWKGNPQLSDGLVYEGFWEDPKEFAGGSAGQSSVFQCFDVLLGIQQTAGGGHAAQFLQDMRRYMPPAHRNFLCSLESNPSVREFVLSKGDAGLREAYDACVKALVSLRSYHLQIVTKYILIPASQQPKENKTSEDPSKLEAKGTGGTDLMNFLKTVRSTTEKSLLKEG

CYP3A4 = target: T3, CYP3A4 (Homo sapiens, UniProt P08684); assay: CYP3A4 inhibition (P450-Glo); assay type: in vitro ADME; conditions: 10 µM
T3 construct: purchased Promega V9920
T3 sequence (P08684 whole entry): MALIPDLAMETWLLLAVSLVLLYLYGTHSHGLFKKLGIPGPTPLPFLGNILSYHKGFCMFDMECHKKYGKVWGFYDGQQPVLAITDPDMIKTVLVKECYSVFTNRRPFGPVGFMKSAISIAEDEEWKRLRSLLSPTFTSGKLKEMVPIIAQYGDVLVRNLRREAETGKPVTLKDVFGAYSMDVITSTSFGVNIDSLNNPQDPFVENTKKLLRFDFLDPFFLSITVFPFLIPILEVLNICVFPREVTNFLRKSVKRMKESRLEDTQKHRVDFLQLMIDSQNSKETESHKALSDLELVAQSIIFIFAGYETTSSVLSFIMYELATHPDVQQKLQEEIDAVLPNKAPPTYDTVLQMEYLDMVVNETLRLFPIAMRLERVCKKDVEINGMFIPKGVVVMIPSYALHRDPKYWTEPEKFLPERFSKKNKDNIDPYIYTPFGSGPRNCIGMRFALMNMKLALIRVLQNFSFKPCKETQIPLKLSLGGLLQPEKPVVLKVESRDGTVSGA
Method: Full-length recombinant human and mouse IDO1 were expressed in Escherichia coli with a hexahistidine tag at the N-terminus, and purified by affinity chromatography to > 95% purity, as described ([8]). Human and mouse TDO containing a C-terminal hexahistidine tag were analogously expressed and purified to > 95% purity ([8]). The inhibitory activity of compounds was determined with the NFK GreenScreen assay technology under the conditions as described ([8]), except for the reaction buffer for IDO1, which was replaced by 50 mM NaH2PO4, pH 7.0, supplemented with 0.01% Tween-20 and 1% glycerol. Inhibition of the CYP3A4 and CYP2D6 enzymes was determined with the P450-Glo™ Screening System with Luciferin-IPA (Promega, #V9920 and V9890). For determination of IC50 values, the effect of inhibitors was determined in 10-point duplicate dose-response curves. Graphs were fitted to a four-parameter logistics equation in XLfit (ID Business Solutions, Ltd., Guildford, UK) from which IC50 values were calculated.

[1] = tested on: cell lines used in this study; assay: cell viability assays (ATPlite 1Step); conditions: in parallel with the cell-based assays
[2] = tested on: CD8-positive T cells co-cultured with HEK-hIDO1 cells; assay: co-culture assay of HEK-hIDO1 cells with PBMCs, CFSE proliferation; assay type: cell-based, human; conditions: 7.5 µM Trp; 10 µM NTRC 3883-0, 1 µM epacadostat; 5 days
[3] = tested on: CT26 cells implanted subcutaneously into female BALB/c mice; assay: CT26 mouse model, second study (Charles River); assay type: in vivo
Method: For the second study, performed at Charles River Laboratories, 3 × 10^5 CT26 cells were implanted subcutaneously into female BALB/c mice on day 0. […] Tumor growth was monitored using caliper measurement 3 times weekly. A tumor volume of 2000 mm^3 was used as the endpoint of the experiment for the individual animals. Tumors were sampled 2 h post last dose.
Tissues were homogenized in PBS at a ratio of 1 mg per 10 μl using micro pellet pestles mounted on a Micro-Tube Homogenizer System (Thomas Scientific). After centrifugation, proteins were removed from the homogenized tissue supernatants and plasma samples by precipitation with methanol. The concentrations of inhibitor, Trp and Kyn were determined by LC-MS/MS.

[4] = in vivo pharmacokinetics, mouse; set-up: species or system male CD-1 mice; conditions: male; for clearance / Vd: intravenous; for Vd: read-out: Vss
Method: Pharmacokinetic properties of NTRC 3883-0 were determined in plasma following single oral (p.o.) and i.v. administration to male CD-1 mice (n = 6 per treatment group with three mice sampled per time point), Wistar rats (n = 3), cynomolgus monkey (n = 1) and Beagle dogs (n = 3). Formulations were prepared in DMSO, Kolliphor® EL, 5% D-mannitol in Elix water at a volume ratio of 1:1:8 for i.v. administration, and in 0.5% gelatin, 5% D-mannitol in Elix water for p.o. administration. Plasma samples were collected at eight to eleven time points up to 24 h after administration. Pharmacokinetic properties and required dosing in humans were predicted by allometric scaling by Karin Jorga Life Science Consulting (Basel, Switzerland) ( Figure S2 and Table S2 ).

[5] = plasma protein binding, rat; assay type: in vitro ADME
Method: Supplement DataSheet_1.docx, table 2: Table S2. Pharmacokinetic parameters of NTRC 3883-0 observed in mouse, rat, monkey and dog, and predicted for humans using allometric scaling. Data in bold are measured, while data in italics are calculated or predicted (for humans). The clearance (Cl) and volume of distribution at steady state (Vss | column: Rat

[6] = tested on: unstimulated adherent cell samples isolated from ascites of ovarian cancer patients; assay: Trp-catabolizing activity in unstimulated ascites cell samples; assay type: cell-based, human; conditions: for pIC50: Homo sapiens
Method: (§1) Ascites was collected from patients with a primary diagnosis of advanced epithelial ovarian cancer during paracentesis for diagnostics or symptom relieve, or during primary debulking surgery. Ascites was filtered and cells were collected by centrifugation as described ([23]). To enrich for tumor cells, ascites cell samples were allowed to adhere overnight to tissue culture plastic. The cell samples were then cultured for 2–3 weeks in advanced RPMI medium (ThermoFisher), supplemented with 10% FBS, 1% glutamax and 1% P/S, with 2 or 3 times passaging of the cells. qPCR analyses of the MUC16, HE4, IDO1, and TDO2 genes were performed for all samples as described above. Five samples which could be cultured over multiple passages were analyzed for cell surface expression of mucin-16 and EpCAM by flow cytometry using FITC-conjugated anti-mucin-16 (AssayPro, #32189-05141) and APC-conjugated anti-EpCAM (Miltenyi, #130-111-117, RRID: AB_2657496) to assure that the cell cultures consisted of malignant cells. IDO1 mRNA and protein levels in these samples were analyzed as described above after incubation with or without 200 ng/ml IFNγ for 24 h. The collection of ascites and the research described was conducted with approval of the medical ethical committee of the Radboud university medical center and informed written consent from each subject.

[7] = tested on: IFNγ-stimulated adherent cell samples isolated from ascites of ovarian cancer patients; assay: Trp-catabolizing activity in IFNγ-stimulated ascites cell samples; assay type: cell-based; conditions: Homo sapiens
Method: as §1

GL-261-mTDO = GL-261-mTDO (Mus musculus, UniProt P48776); assay: cell-based assay, Trp-catabolizing activity in GL-261-mTDO cells; conditions: read-out: inhibition GL-261-mTDO
Sequence of GL-261-mTDO (P48776 whole entry): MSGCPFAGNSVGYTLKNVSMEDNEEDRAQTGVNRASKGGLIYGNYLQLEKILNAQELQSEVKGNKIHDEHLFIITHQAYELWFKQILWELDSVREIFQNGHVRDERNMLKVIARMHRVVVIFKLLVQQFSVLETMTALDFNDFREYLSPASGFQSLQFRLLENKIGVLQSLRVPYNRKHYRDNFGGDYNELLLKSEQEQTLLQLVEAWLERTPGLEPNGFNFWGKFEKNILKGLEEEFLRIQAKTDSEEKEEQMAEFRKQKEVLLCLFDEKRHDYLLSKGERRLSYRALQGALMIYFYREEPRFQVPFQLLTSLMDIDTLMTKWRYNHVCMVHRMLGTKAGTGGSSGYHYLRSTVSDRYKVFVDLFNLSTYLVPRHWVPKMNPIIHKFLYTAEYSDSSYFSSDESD

B16F10-mIDO1 = B16F10-mIDO1 (Mus musculus, UniProt P28776); assay: cell-based assay, Trp-catabolizing activity in B16F10-mIDO1 cells
Sequence of B16F10-mIDO1 (P28776 whole entry, one chain of several): as the sequence (P28776 whole entry) above

[8] = CD-1, plasma, mouse, body weight 0.036 kg

## O=C1CN(C(=O)c2c(F)cccc2F)[C@H](c2cccc(Br)c2)N1O [NTRC 3883-0]
mIDO1
  pIC50: 7.03
hWB + IFNγ (hIDO1)
  pIC50: 6.42
CYP3A4
  inhibition of CYP3A4 activity: did not inhibit
[1]
  cytotoxicity: not cytotoxic
[2]
  effect on IDO1-mediated inhibition of T cell proliferation (in words): relieved the inhibitory effect
[3]; 100 mg/kg p.o. b.i.d. from day 8
  tumor growth: no inhibition of tumor growth
[3]; LC-MS/MS, 2 h post last dose, 100 mg/kg p.o. b.i.d.
  Kyn levels in the tumor: considerable reduction of Kyn levels
[4]; CD-1, mouse, plasma
  half-life: 5.2 h
  clearance: 18.5 mL/min/kg
  Vd: 3.63 L/kg
[4]; [8]
  clearance: 0.667 mL/min
  Vd: 0.131 L
[5]
  fraction unbound: 0.15
[6]
  inhibition of basal Trp-catabolizing activity (in words): no or only minimal inhibition
[6]; mean of samples, read-out: IC50 Mean
  pIC50: < 4.50
[6]; read-out: IC50 ASC 010
  pIC50: < 4.50
[6]; read-out: IC50 ASC 013
  pIC50: < 4.50
[6]; read-out: IC50 ASC 031
  pIC50: < 4.50
[6]; read-out: IC50 ASC 041
  pIC50: < 4.50
[7]; IFNγ-stimulated samples, read-out: IC50
  pIC50: 6.58
[7]; IFNγ-stimulated, read-out: IC50 ASC 009
  pIC50: 6.63
[7]; IFNγ-stimulated, read-out: IC50 ASC 010
  pIC50: 6.53
[7]; IFNγ-stimulated, read-out: IC50 ASC 013
  pIC50: 6.63
[7]; IFNγ-stimulated, read-out: IC50 ASC 031
  pIC50: 6.57
[7]; IFNγ-stimulated, read-out: IC50 ASC 041
  pIC50: 6.49
GL-261-mTDO
  inhibition at 31.6 µM: < 20%
B16F10-mIDO1
  pIC50: 7.74
  times more potent compared to epacadostat in B16F10-mIDO1 assay: 5 times
